Experimental data reported in patent US20250154207A1, “PEPTIDES FOR DISSOLVING PROTEIN AGGREGATES AND METHODS THEREOF” (REJUKON BIOPHARM INC., priority 2022, published 2025).
Entries after “also recorded” stand apart in the source; their conditions may differ.

Key:
[1] = test system: protein aggregates in eukaryotic cells; experiment: depolymerization function in eukaryotic cells; format: cell-based; settings: FIGS. 7-16
Description: The inventors then selected three peptides PLPR3 (SEQ ID NO: 6), ATXN8OS (SEQ ID NO: 7), and GRWD1 (SEQ ID NO: 8) to verify the depolymerization function in eukaryotic cells with the experimental scheme shown in FIG. 6.

[2] = previously identified, PCT/CN2021/111683; cited from earlier work
G3BP1 aggregates = G3BP1 aggregates (Homo sapiens, UniProt Q13283); experiment: in vitro dissolving of protein aggregates by purified peptides; format: biochemical
Chain of G3BP1 aggregates (Q13283 whole entry): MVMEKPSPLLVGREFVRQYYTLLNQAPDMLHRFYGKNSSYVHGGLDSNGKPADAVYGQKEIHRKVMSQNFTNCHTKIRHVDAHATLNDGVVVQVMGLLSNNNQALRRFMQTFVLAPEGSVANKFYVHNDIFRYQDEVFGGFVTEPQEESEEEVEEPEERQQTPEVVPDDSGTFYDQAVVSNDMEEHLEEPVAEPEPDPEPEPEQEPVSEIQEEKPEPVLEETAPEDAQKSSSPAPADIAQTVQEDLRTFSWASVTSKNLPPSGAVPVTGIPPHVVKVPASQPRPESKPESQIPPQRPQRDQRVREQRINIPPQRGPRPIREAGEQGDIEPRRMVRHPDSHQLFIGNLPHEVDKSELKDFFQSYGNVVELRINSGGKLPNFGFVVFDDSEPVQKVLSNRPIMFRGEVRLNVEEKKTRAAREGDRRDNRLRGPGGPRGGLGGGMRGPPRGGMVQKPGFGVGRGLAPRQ
Method: Given that the charged amino acid residues have the highest percentage in Champ-E, the inventors first tested the function of the charged amino acid residues in dissolving protein aggregates. The inventors generated a series variant of Champ-E with mutation of aspartic acid residues and tested their capability of dissolving protein aggregates in vitro and in cells. The variant peptides were expressed in E. coli and then purified (see FIG. 3). The purified variant peptides were then added to in vitro protein solution that is capable of forming protein aggregates.

| Substance | depolymerization effect in eukaryotic cells [1] | other results |
| --- | --- | --- |
| ATXN8OS: SEQ ID NO: 7, PCPGAPCCSLVATGSRVPFSGLKEEEEEDGEDDEEEEEEG; fragment of human protein | have depolymerization effect | – |
| C19L2: SEQ ID NO: 10, LPDVNERIEQFSQEHSVKKKKKKDKHSKKAKKEKKKKSKK; few or no P/G | have depolymerization effect | – |
| CACNA1F: SEQ ID NO: 12, DMEEEEEEEEEEEEEEEEEGAGGVELLQEVVPKEKVVPIP; few or no polar residues | almost no depolymerization effect | – |
| CHD3(E2K): SEQ ID NO: 14, RKKKKKKTKRRKKGKGDGGQKQVKQKSSATLLLTWGLKDV; CHD3 with E mutated to K | still has certain depolymerization effect | – |
| CHD3: SEQ ID NO: 13, REKKEKKTKRRKKGEGDGGQKQVEQKSSATLLLTWGLEDV; mixture of positively and negatively charged residues | some depolymerization effect | – |
| Champ-E: SEQ ID NO: 1, MTEPQEESEEEVEEPEERQQTPEVVPDDSGTFYDQTVSNDLE; charged amphipathic peptide | – | capable of dissolving protein aggregation [2]: capable of dissolving protein aggregation |
| GRWD1: SEQ ID NO: 8, SNRLMMLRMHNLHGTKPPPSEGSDEEEEEEDEEDEEERKP; fragment of human protein | have depolymerization effect | – |
| PELP1: SEQ ID NO: 15, GGPPALEEDLTVININSSDEEEEEEEEEEEEEEEEEEEEE | – | dissolving G3BP1 protein aggregates (G3BP1 aggregates; in vitro, FIG. 17): capable of dissolving G3BP1 protein aggregates |
| PLPR3: SEQ ID NO: 6, PMAEEEEEEEDEEEEEEEEEEEDEGPAPPSLYPTVQARPG; fragment of human protein | have depolymerization effect | – |
| ZNF326: SEQ ID NO: 11, DEPIEEEEDEDEEEEAEEVGEVEEVEEVEEVREGGIEGEG; few or no polar residues | almost no depolymerization effect | – |
| “Champ”-Q: SEQ ID NO: 5, TQPQQQSQQQVQQPQQRQQTPQVVPDDSGTFYDQTVSNDLQ; uncharged variant of Champ-E | – | capability of dissolving protein aggregates in vitro (G3BP1 aggregates; purified peptide added to in vitro protein solution capable of forming protein aggregates, FIG. 4): could no longer dissolve protein aggregates; also recorded: no obvious depolymerization effect |
